Patent US10420815B2, “Combinational therapy for synergistic inhibition of gram-positive and gram-negative bacteria” (priority 2015, dated 2019)
Read-outs that look alike come from different tables or passages of the source. Values belong to the compound of their own block, whether it stands above or below them.

Legend:
Format in all cases: cell-based, Staphylococcus aureus
[1] = tested on: MRSA 3095; test: microbe, parasite or virus in culture; conditions: Staphylococcus aureus; MRSA 3095 (human/skin); read-out: MIC
Source text: (§1) MRSA (ATCC 33593), MSSA (ATCC 29213), and MRSA USA300 (BAA-1680) strains were purchased from the American Type Culture Collection (ATCC; Manassas, Va.). Eight clinical isolates of MRSA were obtained from the Culture Collection of Antimicrobial Resistant Microbes, Korea National Research Resource Center (KNRRC). Salmonella enterica Typhimurium LT2 was purchased from ATCC, and Escherichia coli O157:H7 is a kind gift from Dr. Sangryeol Ryu (Seoul National University, South Korea). All S. aureus strains were maintained in Trypticase Soy (TS) medium, and E. coli O157:H7 and Salmonella were routinely grown aerobically on Luria-Bertani (LB) media at 37° C. For measuring growth kinetics, an overnight culture of MRSA in Mueller-Hinton (MH) broth was diluted 100-fold in fresh MH broth and cultured until early exponential phase. The culture (200 μl) was transferred to each well of a sterile 96-well plate and incubated at 37° C. with bacitracin alone, alkyl gallate alone, and combination of bacitracin/alkyl gallates at various concentrations. The optical density at 600 nm (OD600) was measured every hour with FLUOstar® Omega (BMG Labtech, Germany).
(§2) Broth micro dilution assays were performed to determine the minimum inhibitory concentrations (MIC) accordance to the M7-A7 protocol of the Clinical and Laboratory Standards Institute (CLSI) guidelines^28. The susceptibility test was carried out with an initial bacterial inoculum of 1.5×10^5 CFU ml^−1. Alkyl gallates and bacitracin were serially diluted in a polystyrene 96 well plate and the plate was incubated at 37° C. for 24 h. Minimum bactericidal concentration (MBC) was determined by spotting 10 μl of cultures from MIC tests onto MH agar and incubated aerobically at 37° C.

[2] = tested on: MRSA 3795; test: microbe, parasite or virus in culture
Source text: as §1, §2

[3] = tested on: MRSA 3799; test: microbe, parasite or virus in culture
Source text: as §1, §2

[4] = tested on: MRSA 3823; test: microbe, parasite or virus in culture
Source text: as §1, §2

[5] = tested on: MRSA 3865; test: microbe, parasite or virus in culture
Source text: as §1, §2

[6] = tested on: MRSA 3876; test: microbe, parasite or virus in culture
Source text: as §1, §2

[7] = tested on: MRSA 3903; test: microbe, parasite or virus in culture
Source text: as §1, §2

[8] = tested on: MRSA (ATCC 33593); test: microbe, parasite or virus in culture; conditions: for MIC: Staphylococcus aureus
Source text: as §1, §2
(§3) MICs were determined with MRSA and methicillin-sensitive S. aureus (MSSA) using a broth dilution method as described above.
(§4) MRSA and MSSA were cultured overnight with antioxidants (0.5 μg/ml) and bacitracin at various concentrations and 10 μL of the culture was spotted on MH agar plates and incubated aerobically at 37° C. to observe the bacterial viability. The results in FIGS. 9A, 9B, 9C and 9D (photographs of plates) show the Minimal Bactericidal Concentrations (MBCs) for indicated antioxidants. Bacitracin killed MRSA and MSSA at concentrations greater than or equal to 2 μg/mi.

[9] = tested on: MSSA (ATCC 29213); test: MIC (broth dilution) and MBC (spotting) of phenolic antioxidants and bacitracin; conditions: for MIC: antioxidant alone
Source text: as §1, §2, §3, §4

[10] = tested on: MRSA 3A585; test: microbe, parasite or virus in culture
Source text: as §1, §2

[11] = tested on: MRSA (normal MRSA strain, not USA300); test: MRSA growth (optical density) with bacitracin and phenolic antioxidants
Source text: as §1
MRSA were grown with bacitracin (0.002 μg/mL) with antioxidant (as shown) at 0.5 μg/mL.
FIG. 7A is growth with no added bacitracin or lauryl gallate.
The optical density of MRSA was measured after 18 h culture with bacitracin (0.002 μg/ml) and antioxidants (as indicated at 0.5 μg/ml). Also measured were controls with no additions, with bacitracin alone and with antioxidant alone. FIGS. 8A, 8B, 8C and 8D are graphs illustrating the results.

[12] = Staphylococcus aureus, MRSA 3795 (human/nose), read-out: MIC
[13] = Staphylococcus aureus, MRSA 3799 (human/nose), read-out: MIC
[14] = Staphylococcus aureus, MRSA 3823 (human/nose), read-out: MIC
[15] = Staphylococcus aureus, MRSA 3865 (human/skin), read-out: MIC
[16] = Staphylococcus aureus, MRSA 3876 (human/skin), read-out: MIC
[17] = Staphylococcus aureus, MRSA 3903 (human/skin), read-out: MIC
[18] = MRSA, antioxidant alone, read-out: MIC
[19] = Staphylococcus aureus, read-out: MIC

Compound: CCn1cc(C(=O)O)c(=O)c2cc(F)c(N3CCNCC3)cc21 [NOR, norfloxacin]
MIC [1]: ≥ 128 mg/L
MIC [2, 12]: 0.5 mg/L
MIC [3, 13]: 0.25 mg/L
MIC [4, 14]: 32 mg/L
MIC [5, 15]: ≥ 128 mg/L
MIC [6, 16]: 0.25 mg/L
MIC [7, 17]: 64 mg/L

Compound: COc1cc(/C=C/C(=O)O)cc(OC)c1O [Sinapic acid, sinapic acid]
MIC [8]: > 1020 mg/L
MIC [9, 19]: > 1020 mg/L

Compound: CN(C)[C@@H]1C(O)=C(C(N)=O)C(=O)[C@@]2(O)C(O)=C3C(=O)c4c(O)cccc4[C@@](C)(O)[C@H]3C[C@@H]12 [TET, tetracycline]
MIC ([2]; Staphylococcus aureus, MRSA): 16 mg/L
MIC ([3]; Staphylococcus aureus, MRSA): 64 mg/L
MIC ([4]; Staphylococcus aureus, MRSA): 64 mg/L
MIC ([5]; Staphylococcus aureus, MRSA): 32 mg/L
MIC ([6]; Staphylococcus aureus, MRSA): 16 mg/L
MIC ([7]; Staphylococcus aureus, MRSA): 128 mg/L
MIC ([10]; Staphylococcus aureus, MRSA): ≥ 8 mg/L

Compound: O=C(OC[C@H]1O[C@@H](OC(=O)c2cc(O)c(O)c(OC(=O)c3cc(O)c(O)c(O)c3)c2)[C@H](OC(=O)c2cc(O)c(O)c(OC(=O)c3cc(O)c(O)c(O)c3)c2)[C@@H](OC(=O)c2cc(O)c(O)c(OC(=O)c3cc(O)c(O)c(O)c3)c2)[C@@H]1OC(=O)c1cc(O)c(O)c(OC(=O)c2cc(O)c(O)c(O)c2)c1)c1cc(O)c(O)c(OC(=O)c2cc(O)c(O)c(O)c2)c1 [Tannic acid, tannic acid]
fold decrease of bacitracin MBC by antioxidant ([8]; MRSA, antioxidant 0.5 μg/ml, compared to bacitracin alone): 4 fold
MIC [8]: 512 mg/L
MIC [8, 18]: 1020 mg/L
MIC [9, 19]: 256 mg/L
fold decrease of bacitracin MBC by antioxidant ([9]; antioxidant 0.5 μg/ml, compared to bacitracin alone): 8 fold
MIC [9]: 128 mg/L
growth of MRSA with bacitracin plus antioxidant ([11]; bacitracin 0.002 μg/mL, antioxidant 0.5 μg/mL, FIG. 6): significantly inhibited the growth of MRSA
optical density of MRSA after 18 h culture: inhibition of growth in combination with bacitracin ([11]; bacitracin 0.002 μg/ml (ca. 0.0002 U), antioxidant 0.5 μg/ml, 18 h, FIG. 8): significantly inhibited MRSA

Compound: gentamicin
MIC ([2]; MRSA 3795 (human/nose)): ≥128 mg/L
MIC ([3]; MRSA 3799 (human/nose)): 32 mg/L
MIC ([4]; MRSA 3823 (human/nose)): ≥128 mg/L
MIC ([5]; MRSA 3865 (human/skin)): 32 mg/L
MIC ([6]; MRSA 3876 (human/skin)): 32 mg/L
MIC ([7]; MRSA 3903 (human/skin)): ≥128 mg/L
MIC ([10]; MRSA 3A585 (human/blood)): ≥8 mg/L

Compound: penicillin
MIC ([2]; MRSA 3795 (human/nose)): 16 mg/L
MIC ([3]; MRSA 3799 (human/nose)): 8 mg/L
MIC ([4]; MRSA 3823 (human/nose)): 16 mg/L
MIC ([5]; MRSA 3865 (human/skin)): 16 mg/L
MIC ([6]; MRSA 3876 (human/skin)): 16 mg/L
MIC ([7]; MRSA 3903 (human/skin)): 32 mg/L

Results, then the compound that gave them:

MIC [8, 18]: > 1020 mg/L
MIC [9, 19]: > 1020 mg/L
Compound: O=C1C[C@@H](c2ccc(O)cc2)Oc2cc(O)cc(O)c21 [Narigenine, naringenin]

MIC [1]: ≥ 64 mg/L
MIC [2, 12]: ≥ 128 mg/L
MIC [3, 13]: ≥ 128 mg/L
MIC [4, 14]: 128 mg/L
MIC [5, 15]: 128 mg/L
MIC [6, 16]: 128 mg/L
MIC [7, 17]: ≥ 128 mg/L
MIC ([10]; Staphylococcus aureus, MRSA 3A585 (human/blood), read-out: MIC): > 2 mg/L
Compound: Cc1onc(-c2ccccc2)c1C(=O)N[C@@H]1C(=O)N2[C@@H]1SC(C)(C)[C@@H]2C(=O)O [OXA, oxacillin]

MIC [8, 18]: > 1020 mg/L
MIC [9, 19]: > 1020 mg/L
Compound: O=c1c(O)c(-c2ccc(O)c(O)c2)oc2cc(O)cc(O)c12 [Quercetin, quercetin]

MIC [8, 18]: > 1020 mg/L
MIC [9, 19]: > 1020 mg/L
Compound: O=C(O)c1ccccc1O [Salicylic acid, salicylic acid]

MIC [8, 18]: > 1020 mg/L
MIC [9, 19]: > 1020 mg/L
Compound: O=C1c2c(O)cc(O)cc2O[C@H](c2ccc(O)c(O)c2)[C@H]1O [Taxifolin, taxifolin]

MIC [8, 18]: > 1020 mg/L
MIC [9, 19]: > 1020 mg/L
Compound: COc1cc(C(=O)O)ccc1O [Vanillic acid, vanillic acid]
